Experimental data from patent US8669072B2, “Oxadiazoline ligands for modulating the expression of exogenous genes via an ecdysone receptor complex” (Intrexon Corporation, priority 2003, dated 2014).

How the values were obtained:
[1] = biological target: CfEcR (CDEF)/CfUSP, GST fusion protein (Choristoneura fumiferana, UniProt O77240); assay: CfEcR (CDEF)/CfUSP GST fusion protein assay; type: binding; conditions: for EC50: GST fusion protein, read-out: CfEcR EC50
[2] = biological target: T1, GAL4 DBD-CfEcR(DEF)/VP16AD-MmRXRE (Choristoneura fumiferana, UniProt O77240); assay: 13B3 assay: luciferase reporter gene induction in stable CHO clone 13B3; type: cell-based; conditions: 33/33.3 μM ligand, 48 h, RLU relative to DMSO
T1 construct: The wild-type D, E, and F domains from spruce budworm Choristoneura fumiferana EcR (“CfEcR-DEF”)
Method in brief: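 Stable CHO clone 13B3 co-expressing GAL4 DBD-CfEcR(DEF) and VP16AD-MmRXRE with a GAL4 RE-luciferase reporter; ligands from DMSO stocks diluted 300-fold. Luciferase read by luminescence 48 h after treatment, duplicate wells averaged. Fold induction = RLU treated/RLU DMSO; EC50 from three-parameter logistic fit.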

[3] = biological target: T2, Bombyx mori EcR (VBE) (Bombyx mori, UniProt P49881); assay: Z3 assay: β-galactosidase reporter gene induction in HEK-293 clone Z3 (CVBE / 6XEcRE LacZ); type: cell-based; conditions: 33 μM ligand, 48 h, RLU relative to DMSO
T2 construct: expressed in transfected cells; host or cells: Human HEK-293 cells, retrovirally infected, clone Z3
T2 sequence (P49881 86-606 limits assumed): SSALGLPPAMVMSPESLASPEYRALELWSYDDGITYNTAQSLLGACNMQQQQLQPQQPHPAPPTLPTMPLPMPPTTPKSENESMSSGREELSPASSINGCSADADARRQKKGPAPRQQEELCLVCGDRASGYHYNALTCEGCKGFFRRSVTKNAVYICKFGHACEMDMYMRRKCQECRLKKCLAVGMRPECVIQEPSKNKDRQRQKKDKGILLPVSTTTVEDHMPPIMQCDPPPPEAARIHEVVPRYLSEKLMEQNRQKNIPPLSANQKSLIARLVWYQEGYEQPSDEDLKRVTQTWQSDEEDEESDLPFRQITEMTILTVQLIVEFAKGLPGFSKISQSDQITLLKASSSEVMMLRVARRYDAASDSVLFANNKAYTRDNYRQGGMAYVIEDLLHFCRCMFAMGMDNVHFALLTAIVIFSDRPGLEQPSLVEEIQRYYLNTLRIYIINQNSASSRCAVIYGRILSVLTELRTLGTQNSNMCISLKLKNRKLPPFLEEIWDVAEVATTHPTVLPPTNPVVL
T2 sequence (P19793 1-462 partner): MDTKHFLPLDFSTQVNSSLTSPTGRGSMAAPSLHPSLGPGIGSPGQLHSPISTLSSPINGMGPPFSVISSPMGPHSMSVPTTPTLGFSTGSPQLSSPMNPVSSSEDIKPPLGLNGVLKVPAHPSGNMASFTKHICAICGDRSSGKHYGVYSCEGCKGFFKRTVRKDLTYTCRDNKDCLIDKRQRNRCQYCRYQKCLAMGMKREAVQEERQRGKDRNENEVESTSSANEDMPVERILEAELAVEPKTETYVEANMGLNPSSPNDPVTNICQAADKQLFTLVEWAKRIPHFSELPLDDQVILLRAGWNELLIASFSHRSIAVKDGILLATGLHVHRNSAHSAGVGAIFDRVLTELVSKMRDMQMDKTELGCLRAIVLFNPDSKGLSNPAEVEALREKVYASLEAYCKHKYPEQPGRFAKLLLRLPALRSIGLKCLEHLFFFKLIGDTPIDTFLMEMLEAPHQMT

[4] = system: MTA (two-spotted spider mite); assay: Insect toxicity contact bioassay, MTA; type: in vivo
Description: (§1) The compound to be evaluated was dissolved in an appropriate solvent, usually a mix of acetone, methanol, and water. Test solutions were made by serial dilution of a stock test solution with acetone, methanol, and water. Initial evaluations were made at one or more concentrations on one or more of the following insects:
(§2) Contact bioassays (green peach aphid, two-spotted spider mite, white fly) were conducted by applying a solution of the test compound to the inside surface of a Petri dish. The solution was allowed to air-dry, then each dish was infested and the larvae from each treatment were transferred to a bioassay tray. The trays were held for one to seven days, and the mortality rating was determined for each treatment.

[5] = system: Beet Armyworm; assay: Insect toxicity feeding bioassay, BAW; type: in vivo
Description: as §1
(§3) Feeding bioassays were conducted in bioassay trays containing insect diet. Treatments were made by applying 50 μL of test solution to the surface of the diet in each of 5 wells. After the test solution dried, each well was infested with a single neonate larva. The trays were held for six days and then the mortality rating was determined for each treatment.

[6] = system: Cabbage Looper; assay: Insect toxicity feeding bioassay, CL; type: in vivo
Description: as §1, §3

[7] = system: Tobacco Budworm; assay: Insect toxicity bioassay, TBW; type: in vivo
Description: as §1, §3
Some of the tobacco budworm tests were conducted as follows. A test solution containing 600 ppm was made by dissolving a compound of the invention in a 1:1 acetone:methanol solution, then adding water to give a 5:5:90 acetone:methanol:water solution, and finally a surfactant was added at an equivalent of 7.37 g of surfactant per 100 L of test solution (1 ounce of surfactant per 100 gallons of test solution). Appropriate dilutions were prepared in water from the 600 ppm solution. A detached cotton leaf, Gossypium hirsutum was placed on moistened filter paper in a Petri dish (100×20 mms). The leaf was sprayed with the test solution using a rotating turntable sprayer and allowed to dry. The dish was infested with 10 first instar larvae of the tobacco budworm and covered with the lid. If the larvae were alive two days after treatment, fresh untreated cotton leaves were added. All treatments were maintained at 23.9-26.7° C. (75-80° F.) under fluorescent light in a well-ventilated room. Percent mortality was determined at four days after treatment.

[8] = system: WFN (white fly); assay: Insect toxicity contact bioassay, WFN; type: in vivo
Description: as §1, §2

[9] = biological target: T3, GAL4 DBD (1-147)-CfEcR(DEF)/VP16AD-βRXREF-LmUSPEF (Choristoneura fumiferana, UniProt O77240); assay: cell-based; conditions: for fold induction at 33.3 µM: 48 h, read-out: Fold Induction Average, 27-63 assay; for Rel Max FI, 27-63 assay: maximum fold induction relative to that of GS-E ligand
T3 construct: The wild-type D, E, and F domains from spruce budworm Choristoneura fumiferana EcR (“CfEcR-DEF”)
Description: Stably transfected cells were selected by Zeocin resistance. Individually isolated CHO cell clones were transiently transfected with a GAL4 RE-luciferase reporter (pFR Luc). 27-63 clone was selected using Hygromycin.
Cells were trypsinized and diluted to a concentration of 2.5×10^4 cells mL. 100 μL of cell suspension was placed in each well of a 96 well plate and incubated at 37° C. under 5% CO2 for 24 h. Ligand stock solutions were prepared in DMSO and diluted 300 fold for all treatments.
Luciferase reporter gene expression was measured 48 h after cell treatment using Bright-Glo™ Luciferase Assay System from Promega (E2650). Luminescence was detected at room temperature using a Dynex MLX microtiter plate luminometer.
Each assay was conducted in two separate wells, and the two values were averaged. Fold inductions were calculated by dividing relative light units (“RLU”) in ligand treated cells with RLU in DMSO treated cells. EC50s were calculated from dose response data using a three-parameter logistic model.

Chain of CfEcR (CDEF)/CfUSP, GST fusion protein (O77240 entry or part of it): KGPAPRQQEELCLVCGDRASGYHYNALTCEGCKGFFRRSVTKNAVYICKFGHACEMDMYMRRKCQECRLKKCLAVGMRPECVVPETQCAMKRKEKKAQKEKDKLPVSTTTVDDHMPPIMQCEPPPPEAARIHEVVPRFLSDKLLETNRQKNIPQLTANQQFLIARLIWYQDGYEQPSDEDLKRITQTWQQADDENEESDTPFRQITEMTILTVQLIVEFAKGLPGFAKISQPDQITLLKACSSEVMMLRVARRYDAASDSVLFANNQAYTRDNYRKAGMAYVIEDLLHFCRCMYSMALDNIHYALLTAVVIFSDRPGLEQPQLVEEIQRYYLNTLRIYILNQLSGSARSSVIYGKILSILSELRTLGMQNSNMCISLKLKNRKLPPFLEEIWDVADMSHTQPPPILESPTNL
Chain of CfEcR (CDEF)/CfUSP, GST fusion protein (O76202 whole entry, further chain, the tested form may be a part): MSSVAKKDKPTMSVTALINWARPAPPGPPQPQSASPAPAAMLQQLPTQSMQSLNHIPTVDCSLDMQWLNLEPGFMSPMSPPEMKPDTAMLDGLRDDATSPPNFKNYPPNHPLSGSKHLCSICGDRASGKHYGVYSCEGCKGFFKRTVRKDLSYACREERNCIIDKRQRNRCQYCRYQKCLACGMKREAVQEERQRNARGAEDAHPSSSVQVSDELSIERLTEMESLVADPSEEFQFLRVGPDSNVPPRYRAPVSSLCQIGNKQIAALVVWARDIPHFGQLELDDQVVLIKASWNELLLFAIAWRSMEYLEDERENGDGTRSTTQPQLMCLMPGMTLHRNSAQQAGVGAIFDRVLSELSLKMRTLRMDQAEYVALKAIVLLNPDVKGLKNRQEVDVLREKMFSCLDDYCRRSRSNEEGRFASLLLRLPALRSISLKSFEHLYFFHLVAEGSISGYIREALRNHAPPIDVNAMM

| SMILES | Fold Induction Average, Z3 assay [3] | Insect Toxicity % control @ 150 ppm, MTA [4] [% @ 150] | Insect Toxicity % control @ 150 ppm, BAW [5] [% @ 150] | Insect Toxicity % control @ 150 ppm, CL [6] [% @ 150] | Insect Toxicity % control @ 150 ppm, TBW [7] [% @ 150] | Insect Toxicity % control @ 150 ppm, WFN [8] [% @ 150] | other results |
| --- | --- | --- | --- | --- | --- | --- | --- |
| CCC1(C)ON=C(c2cc(C)cc(C)c2)N1NC(=O)Nc1ccccc1 (stereo not drawn) [RG-120051] |  |  |  |  |  |  | EC50 [1]: 147 nM |
| Cc1cccc(C(=O)NN2C(c3cc(C)cc(C)c3)=NOC2(C)C)c1 [RG-120077] | 14.6 | 0 | 50 | 100 | 0 | 0 | Fold Induction Average, 13B3 assay [2]: 0.4 |
| CCc1c(OC)cccc1C(=O)NN1C(c2cc(C)cc(C)c2)=NOC12CCOCC2 [RG-120008] | 567.3 |  |  |  |  |  | CfEcR % @ 1 uM ([1]; 1 uM): 81% @ 1 uM |
| CC1(C)ON=C(c2cccc(C(F)(F)F)c2)N1NC(=O)c1ccccc1 [RG-120015] | 0.8 | 0 | 80 | 0 | 0 | 0 |  |
| CC1(C)ON=C(c2cccc(C(F)(F)F)c2)N1NC(=O)Cc1ccccc1 [RG-120021] | 0.7 | 51 | 100 | 0 | 0 | 0 |  |
| CCC1(C)ON=C(c2cc(C)cc(C)c2)N1NC(=O)c1ccccc1 (stereo not drawn) [RG-120039] |  |  |  |  |  |  | EC50 [1]: 203 nM |
| CCc1c(OC)cccc1C(=O)NN1C(c2ccccc2)=NOC12CCCC2 [RG-120092] |  |  |  |  |  |  | EC50 [9]: 7160 nM; fold induction at 33.3 µM [9]: 2190; Rel Max FI, 27-63 assay [9]: 1.15; Insect Toxicity LC50, MTA ([4]; in vivo): >150 ppm; Insect Toxicity LC50, BAW ([5]; in vivo): 47 ppm; Insect Toxicity LC50, CL ([6]; in vivo): 13 ppm; Insect Toxicity LC50, TBW ([7]; in vivo): 98 ppm; Insect Toxicity LC50, WFN ([8]; in vivo): >150 ppm |
| CCc1ccc(C(=O)NN2C(c3ccccc3)=NOC2(C)CC)cc1 (stereo not drawn) [RG-120137] |  |  |  |  |  |  | fold induction at 33.3 µM ([2]; read-out: Fold Induction Average, 13B3 assay): 5.3; EC50 [9]: > 33000 nM; fold induction at 33.3 µM [9]: 4.6; Rel Max FI, 27-63 assay [9]: 0; fold induction at 33 µM ([3]; HEK293, read-out: Fold Induction Average, Z3 assay): 59 |
